Measured values published in ChEMBL document CHEMBL3400000, “The discovery of potent agonists for GPR88, an orphan GPCR, for the potential treatment of CNS disorders” (Bioorg Med Chem Lett, 2015).
Values belong to the compound of their own block, whether it stands above or below them.

Target: G protein-coupled receptor 88 (Homo sapiens, UniProt Q9GZN0)
Assay: Agonist activity at GPR88 (unknown origin) transfected into cells assessed as cAMP accumulation by HTRF assay
Format: functional

G protein-coupled receptor 88, sequence (Q9GZN0 whole entry): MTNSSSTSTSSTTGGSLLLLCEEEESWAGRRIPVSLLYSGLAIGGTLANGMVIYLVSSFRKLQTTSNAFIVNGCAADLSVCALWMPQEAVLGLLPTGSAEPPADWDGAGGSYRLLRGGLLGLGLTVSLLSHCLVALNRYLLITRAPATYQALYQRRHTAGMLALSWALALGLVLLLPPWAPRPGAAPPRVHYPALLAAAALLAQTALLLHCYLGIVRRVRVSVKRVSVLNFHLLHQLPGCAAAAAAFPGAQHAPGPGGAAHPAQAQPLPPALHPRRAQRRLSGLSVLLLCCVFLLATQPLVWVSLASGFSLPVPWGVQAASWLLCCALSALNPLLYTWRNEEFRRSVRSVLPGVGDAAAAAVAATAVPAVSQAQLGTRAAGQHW

EC50: 4500 nM
Structure (SMILES): CC(C)C[C@H](N)CN(C(=O)[C@@H]1C[C@H]1c1ccccc1)c1ccc(-c2cccc(C#N)c2)cc1

EC50: 2 nM
Structure (SMILES): CCC(CC)C(N)CCN(C(=O)[C@@H]1C[C@H]1c1ccccc1)c1ccc(-c2ccccc2)cc1 (stereo partly drawn)

EC50: 320 nM
Structure (SMILES): CC[C@H](C)[C@H](N)CN(C(=O)[C@@H]1C[C@H]1c1ccccc1)c1ccc(-c2ccc(N)cc2)cc1

EC50: 130 nM
Structure (SMILES): CC[C@H](C)[C@H](N)CN(C(=O)[C@@H]1C[C@H]1c1ccccn1)c1ccc(-c2ccccc2)cc1

EC50: 210 nM
Structure (SMILES): CC[C@H](C)[C@H](N)CN(C(=O)[C@@H]1C[C@H]1c1nccs1)c1ccc(-c2ccccc2)cc1

EC50: 730 nM
Structure (SMILES): CC[C@H](C)[C@H](N)CN(C(=O)[C@@H]1C[C@H]1c1nc(C)cs1)c1ccc(-c2ccccc2)cc1

EC50: 600 nM
Structure (SMILES): CC[C@H](C)[C@H](N)CN(C(=O)[C@@H]1C[C@H]1c1ccc(F)cc1)c1ccc(-c2ccccc2)cc1

EC50: 44 nM
Structure (SMILES): CCc1ccc(-c2ccc(N(C[C@@H](N)[C@@H](C)CC)C(=O)[C@@H]3C[C@H]3c3ccccc3)cc2)cc1

EC50: 2 nM
Structure (SMILES): CN[C@@H](CC(C)C)CN(C(=O)[C@@H]1C[C@H]1c1ccccc1)c1ccc(-c2ccccc2)cc1

EC50: 360 nM
Structure (SMILES): Cc1ccc(-c2ccc(N(C[C@@H](N)CC(C)C)C(=O)[C@@H]3C[C@H]3c3ccccc3)cc2)cc1

More lines, now with the values behind:

Structure (SMILES): O=C([C@@H]1C[C@H]1c1ccccc1)N(CCNCC1CCCCC1)c1ccc(-c2ccccc2)cc1
EC50: 6.6 nM

Structure (SMILES): CC[C@H](C)[C@H](N)CN(C(=O)[C@@H]1C[C@H]1c1ccccc1)c1ccc(-c2ccc(OC(C)C)cc2)cc1
EC50: 72 nM

Structure (SMILES): CC(C)C[C@H](N)CN(C(=O)[C@@H]1C[C@H]1c1ccccc1)c1ccc(-c2ccc(C#N)cc2)cc1
EC50: 670 nM

Structure (SMILES): CC(C)C[C@H](N)CN(C(=O)[C@@H]1C[C@H]1c1ccccc1)c1ccccc1-c1ccccc1
EC50: 6200 nM

Structure (SMILES): CC[C@H](C)[C@H](N)CN(C(=O)[C@@H]1C[C@H]1c1cc(F)ccc1F)c1ccc(-c2ccccc2)cc1
EC50: 770 nM

Structure (SMILES): CC[C@H](C)[C@H](N)CN(C(=O)[C@@H]1C[C@H]1c1ccsc1)c1ccc(-c2ccccc2)cc1
EC50: 450 nM

Structure (SMILES): CC[C@H](C)[C@H](N)CN(C(=O)[C@@H]1C[C@H]1c1ccccc1)c1ccc(-c2ccc(NC(C)=O)cc2)cc1
EC50: 5500 nM

Structure (SMILES): CC[C@H](C)[C@H](N)CN(C(=O)[C@@H]1C[C@H]1c1cccc(OC)c1)c1ccc(-c2ccccc2)cc1
EC50: 3000 nM

Structure (SMILES): NC1(CN(C(=O)[C@@H]2C[C@H]2c2ccccc2)c2ccc(-c3ccccc3)cc2)CCCC1
EC50: 0.57 nM

Structure (SMILES): CC[C@H](C)[C@H](N)CN(C(=O)[C@@H]1C[C@H]1c1ccccc1)c1ccc(-c2ccc(CN)cc2)cc1
EC50: > 30000 nM

Structure (SMILES): CCOc1ccc(-c2ccc(N(C[C@@H](N)[C@@H](C)CC)C(=O)[C@@H]3C[C@H]3c3ccccc3)cc2)cc1
EC50: 90 nM

Structure (SMILES): CC[C@H](C)[C@H](N)CN(C(=O)[C@@H]1C[C@H]1C1CCCCC1)c1ccc(-c2ccccc2)cc1
EC50: > 25000 nM

Structure (SMILES): CC[C@H](C)[C@H](N)CN(C(=O)[C@@H]1C[C@H]1c1csc(C)n1)c1ccc(-c2ccccc2)cc1
EC50: 1500 nM
